Test results taken from PMC12564302, “Discovery of N-Hydroxypyridinedione-Based Inhibitors of HBV RNase H: Design, Synthesis, and Extended SAR Studies” (International Journal of Molecular Sciences, 2025).
Values after ≈ are worked out from the molar mass of the structure shown. “Also recorded” adds a separate entry of the source. Read-outs that look alike come from different tables or passages of the source.

What was measured:
[1] = tested on: HBV replication in HepDES19 cells; assay: qPCR HBV replication inhibition assay; format: cell-based, HBV genotype D
Description: (§1) HepDES19 cells are a HepG2 cell-line derivative that has been stably transfected with an HBV genotype D genome containing a tetracycline repressible promoter. HepDES19 cells were maintained on collagen-coated plates in Dulbecco’s modified Eagle’s medium (DMEM/F12) (Cytiva Life Sciences, Marlborough, MA, USA) supplemented with 10% fetal bovine serum (FBS), streptomycin (100 µg/mL), and penicillin (100 IU/mL), and incubated at 37 °C with 5% CO2 and saturating humidity. Cells were cultured with 1 µg/mL tetracycline to inhibit the expression of the stably integrated HBV genome, and HBV replication was activated upon removal of tetracycline from the culture medium.
HBV replication inhibition in HepDES19 cells was assessed using a strand-preferential quantitative PCR assay as previously described. HepDES19 cells were seeded in 96 well plates at 4 × 10^4 cells/well for 48 h followed by the addition of serial diluted compound with a final concentration of 1% DMSO for 72 h, after which cells were lysed, and qPCR was performed as described in Li et al.. Effective concentration 50% (EC50) values were calculated from data for the (+) polarity DNA strand data using GraphPad Prism version 10’s four-parameter log (inhibitor) versus response algorithm, with the bottom value set to zero. Three or more replicate assays were performed on different days.

MTS cytotoxicity assay = format: cell-based; settings: human, HepDES19 cells, pH 7.4
Description: as §1
Cell viability was assessed using the CellTiter 96^TM Aqueous Non-Radioactive Cell Proliferation assay (MTS) (Promega, Madison, WI, USA) as described previously. HepDES19 cells were seeded in 96 well plates at 1 × 10^4 cells/well for 48 h. Cells were then incubated with serial diluted compound, with a final concentration of 1% DMSO, for 72 h. Following compound incubation, background absorbance values were subtracted, and the data were converted into percent cell viability. The cytotoxic concentration 50% (CC50) values were calculated using GraphPad Prism’s four-parameter log (inhibitor) versus response algorithm, with the bottom value set to zero. Three or more replicate assays were performed on different days.

Solubility limit assay = format: physicochemical; settings: DMEM-F12 without phenol red with 10% FBS, pH 7.4, plasma or biological fluid, kinetic from dmso stock
Description: Solubility limits of compounds were tested as previously reported in DMEM-F12 without phenol red (Gibco, Grand Island, NY, USA) but with the media supplemented with 10% FBS (pH 7.4) to mimic cell culture experiments. In a 384-well optically clear plate, compounds were serially diluted in pH 7.4 buffer (upper limit 200 µM, DMSO 1%) then read at 620 nm. Solubility limits were determined by plotting compound concentration (µM) against optical density (OD) and identifying an inflexion point. The inflexion point is defined by a substantial increase in OD brought on by increasing turbidity, and the compound concentration at this point is known as the solubility limit. Each compound had at least two replicate assays performed on different days.

[2] = Parallel artificial membrane permeability assay; format: in vitro ADME; settings: PAMPA, pH 7.4, PAMPA
Description: The evaluation of apparent passive permeability (Papp) at pH 7.4 was performed using a donor/acceptor cassette (Innovative Laboratory Products, Phoenix, AZ, USA and Sigma Aldrich, Burlington, MA, USA), which simulates the apical and basolateral sides of the small intestine epithelium, as previously described. An artificial membrane made of 1% w/v lecithin/dodecane was applied to the poly (vinylidene fluoride) (PVDF) membrane filter and allowed to dry. Following drying, compounds (200 µM) were diluted in buffer at pH 7.4 and added to the donor side of the cassette. The same pH buffer was added on the acceptor side of the cassette, after which it was assembled and incubated at room temperature with shaking at 250 rpm for 2 h, before reading the absorbance of 100 µL from the acceptor well on a plate reader between 230 and 700 nm. The Papp (cm/s) values for compounds were determined by normalizing to the compound absorbance at equilibrium using the peak absorbance point for each compound, buffer volume, incubation time, and membrane porosity. Two or more replicate assays were conducted on different days.

[3] = Hepatitis B virus, HepDES19, 72 h, pH 7.4, HepDES19 cells, 72 h, (+) polarity DNA strand, pH 7.4, read-out: EC50
[4] = pH 7.4, DMEM-F12 with 10% FBS, 1% DMSO, upper limit 200 µM, read-out: Solubility Limit
[5] = pH 7.4, read-out: Solubility Limit Interpretation
[6] = pH 7.4, 200 µM, 2 h, read-out: Papp
[7] = pH 7.4, read-out: Papp Interpretation
[8] = Hepatitis B virus, HepDES19, 72 h, experimental potencies of the E/Z mixture, read-out: EC50 mix

Row | Compound | anti-HBV activity (in words) ([1]; HepDES19 cells) | EC50 ([1]; HepDES19 cells, 72 h, (+) polarity DNA strand, pH 7.4, read-out: EC50) [µM] | EC50 [1, 3] [µM] | CC50 at 72 h (MTS cytotoxicity assay) [µM] | solubility (Solubility limit assay; [4]) [µM] | solubility (Solubility limit assay; [5]) [µM] | Papp at 2 h, 200 µM [2, 6] [×10⁻⁶ cm/s] | Papp at 2 h, 200 µM [2, 7] [×10⁻⁶ cm/s] | EC50 [1, 8] [µM]
1 | 2-amino-4-(2-bromophenoxy)-6-iminopyrimidin-1(6H)-ol [Compound 44] | inactive against HBV | > 100 |  |  |  |  |  |  | 
2 | CC(=Nc1ccccc1F)c1c(C)cc(=O)n(O)c1O [Compound 21, 5-(1-((2-fluorophenyl)imino)ethyl)-1,6-dihydroxy-4-methylpyridin-2(1H)-one] |  |  | 2.2 ± 0.5 | 86.3 ± 10.2 | > 200 | > 100 | 5.72 | > 1 | 
3 | CC(=Nc1ccccc1Cl)c1c(C)cc(=O)n(O)c1O [Compound 23, 5-(1-((2-chlorophenyl)imino)ethyl)-1,6-dihydroxy-4-methylpyridin-2(1H)-one] |  |  | 2.42 ± 1 | 76.8 ± 5.9 | > 200 | > 100 | 2.83 | > 1 | 
4 | CC(=Nc1ccc(Cl)c(Cl)c1)c1c(C)cc(=O)n(O)c1O [Compound 24, 5-(1-((3,4-dichlorophenyl)imino)ethyl)-1,6-dihydroxy-4-methylpyridin-2(1H)-one] |  |  | 2.17 ± 0.8 | 69 | > 200 | > 100 | 2.24 | > 1 | 
5 | CC(=Nc1ccccc1Br)c1c(C)cc(=O)n(O)c1O [Compound 25, 5-(1-((2-bromophenyl)imino)ethyl)-1,6-dihydroxy-4-methylpyridin-2(1H)-one] |  |  | 4.53 ± 2.5 | 45.8 ± 4.6 | > 200 | > 100 | 3.12 | > 1 | 
6 | CC(=Nc1ccc(F)cc1F)c1c(C)cc(=O)n(O)c1O [Compound 26, 5-(1-((2,4-difluorophenyl)imino)ethyl)-1,6-dihydroxy-4-methylpyridin-2(1H)-one] |  |  | 2.83 ± 1.1 | 54.1 ± 27.7 | > 200 | > 100 | 3.81 | > 1 | 
7 | CC(=Nc1cc(F)ccc1F)c1c(C)cc(=O)n(O)c1O [Compound 27, 5-(1-((2,5-difluorophenyl)imino)ethyl)-1,6-dihydroxy-4-methylpyridin-2(1H)-one] |  |  | 1.97 ± 0.6 | 58.4 ± 21.9 | > 200 | > 100 | 2.4 | > 1 | 
8 | CC(=Nc1c(F)cccc1F)c1c(C)cc(=O)n(O)c1O [Compound 28, 5-(1-((2,6-difluorophenyl)imino)ethyl)-1,6-dihydroxy-4-methylpyridin-2(1H)-one] |  |  | 2.73 ± 1 | 52.6 ± 20.5 | > 200 | > 100 | 2.48 | > 1 | 
9 | CC(=Nc1ccc(F)c(Cl)c1)c1c(C)cc(=O)n(O)c1O [Compound 29, 5-(1-((3-chloro-4-fluorophenyl)imino)ethyl)-1,6-dihydroxy-4-methylpyridin-2(1H)-one] |  |  | 3.25 ± 1 | 70.8 ± 18.4 | > 200 | > 100 | 3.65 | > 1 | 
10 | CC(=NOCc1ccc(Cl)c(Cl)c1)c1c(C)cc(=O)n(O)c1O [Compound 30, 5-(1-(((3,4-dichlorobenzyl)oxy)imino)ethyl)-1,6-dihydroxy-4-methylpyridin-2(1H)-one] |  |  | 1.77 ± 0.7 | 49.7 ± 16.4 | > 200 | > 100 | 1.59 | > 1 | 1.77 ± 0.7
11 | CC(=NOCc1ccc(Cl)cc1Cl)c1c(C)cc(=O)n(O)c1O [Compound 31, 5-(1-(((2,4-dichlorobenzyl)oxy)imino)ethyl)-1,6-dihydroxy-4-methylpyridin-2(1H)-one] |  |  | 0.5 | 34.4 ± 14.1 | > 200 | > 100 | 4 | > 1 | 0.53 ± 0.3
12 | CC(=NOCc1ccccc1I)c1c(C)cc(=O)n(O)c1O [Compound 32, 1,6-dihydroxy-5-(1-(((2-iodobenzyl)oxy)imino)ethyl)-4-methylpyridin-2(1H)-one] |  |  | 1.77 ± 0.5 | 54.1 ± 13.7 | 100 (≈ 41.4 µg/mL) | > 100 | 3.29 | > 1 | 1.77 ± 0.5
13 | CC(=NCc1ccccc1Br)c1c(C)cc(=O)n(O)c1O [Compound 33, 5-(1-((2-bromobenzyl)imino)ethyl)-1,6-dihydroxy-4-methylpyridin-2(1H)-one] |  |  | 8.45 ± 3.5 | 51.3 ± 20.9 | > 200 | > 100 | 1.22 | > 1 | 
14 | CC(=NCc1cccc(Br)c1)c1c(C)cc(=O)n(O)c1O [Compound 34, 5-(1-((3-bromobenzyl)imino)ethyl)-1,6-dihydroxy-4-methylpyridin-2(1H)-one] |  |  | 13.6 ± 2.8 | 22.6 ± 16.7 | > 200 | > 100 | 1.11 | > 1 | 
15 | CC(=NCc1ccc(Br)cc1)c1c(C)cc(=O)n(O)c1O [Compound 35, 5-(1-((4-bromobenzyl)imino)ethyl)-1,6-dihydroxy-4-methylpyridin-2(1H)-one] |  |  | 15 ± 10.7 | 44.4 ± 34.4 | > 200 | > 100 | 3.15 | > 1 | 
16 | CC(=NCc1ccccc1Cl)c1c(C)cc(=O)n(O)c1O [Compound 36, 5-(1-((2-chlorobenzyl)imino)ethyl)-1,6-dihydroxy-4-methylpyridin-2(1H)-one] |  |  | 2.77 ± 0.8 | 52.7 ± 29.3 | 167 (≈ 51.1 µg/mL) | > 100 | 3.04 | > 1 | 
17 | CC(=NCc1cccc(Cl)c1)c1c(C)cc(=O)n(O)c1O [Compound 37, 5-(1-((3-chlorobenzyl)imino)ethyl)-1,6-dihydroxy-4-methylpyridin-2(1H)-one] |  |  | 4.73 ± 4.4 | 34 ± 23 | > 200 | > 100 | 5.41 | > 1 | 
18 | CC(=NCc1ccc(Cl)cc1)c1c(C)cc(=O)n(O)c1O [Compound 38, 5-(1-((4-chlorobenzyl)imino)ethyl)-1,6-dihydroxy-4-methylpyridin-2(1H)-one] |  |  | 18.9 ± 8.4 | 22.9 ± 7 | > 200 | > 100 | 3.07 | > 1 | 
19 | CC(=NOCc1ccccc1Cl)C1C(=O)NC(=O)NC1=O [Compound 45, 5-(1-(((2-chlorobenzyl)oxy)imino)ethyl)pyrimidine-2,4,6(1H,3H,5H)-trione] | inactive; also recorded: lack of inhibition; also recorded: lack of activity |  | 100 | 100 |  |  |  |  | 
